Experiments:
SK-OV-3 = test: Cytotoxicity against human SKOV3 cells at 10 uM after 48 hrs by SRB assay; type: functional; settings: SK-OV-3, 48 h, read-out: GI
U-251 = test: Cytotoxicity against human U251 cells at 10 uM after 48 hrs by SRB assay; type: functional; settings: U-251, 48 h, read-out: GI
T47D = test: Cytotoxicity against human T47D cells at 10 uM after 48 hrs by SRB assay; type: functional; settings: read-out: GI
UACC-257 = test: Cytotoxicity against human UACC257 cells at 10 uM after 48 hrs by SRB assay; type: functional; settings: UACC-257, 48 h, read-out: GI
SF-539 = test: Cytotoxicity against human SF539 cells at 10 uM after 48 hrs by SRB assay; type: functional; settings: SF-539, 48 h, read-out: GI
BT-549 = test: Cytotoxicity against human BT549 cells at 10 uM after 48 hrs by SRB assay; type: functional; settings: BT-549, 48 h, read-out: GI
OVCAR-8 = test: Cytotoxicity against human OVCAR8 cells at 10 uM after 48 hrs by SRB assay; type: functional; settings: OVCAR-8, 48 h, read-out: GI
IGROV-1 = test: Cytotoxicity against human IGROV1 cells at 10 uM after 48 hrs by SRB assay; type: functional; settings: IGROV-1, 48 h, read-out: GI
[1] = n-Octanol-phosphate buffer partition coefficient, log P of the compound at pH 7.4 by shake flask method; type: physicochemical
[2] = Cytotoxicity against human EKVX cells at 10 uM after 48 hrs by SRB assay; type: functional; settings: read-out: GI
UO-31 = test: Cytotoxicity against human UO31 cells at 10 uM after 48 hrs by SRB assay; type: functional; settings: UO-31, 48 h, read-out: GI
SK-MEL-5 = test: Cytotoxicity against human SK-MEL-5 cells at 10 uM after 48 hrs by SRB assay; type: functional; settings: SK-MEL-5, 48 h, read-out: GI
HCC 2998 = test: Cytotoxicity against human HCC2998 cells at 10 uM after 48 hrs by SRB assay; type: functional; settings: HCC 2998, 48 h, read-out: GI
MDA-MB-435 = test: Cytotoxicity against human MDA-MB-435 cells at 10 uM after 48 hrs by SRB assay; type: functional; settings: MDA-MB-435, 48 h, read-out: GI
A498 = test: Cytotoxicity against human A498 cells at 10 uM after 48 hrs by SRB assay; type: functional; settings: A498, 48 h, read-out: GI
SK-MEL-28 = test: Cytotoxicity against human SK-MEL-28 cells at 10 uM after 48 hrs by SRB assay; type: functional; settings: SK-MEL-28, 48 h, read-out: GI
A549 = test: Cytotoxicity against human A549 cells at 10 uM after 48 hrs by SRB assay; type: functional; settings: A549, 48 h, read-out: GI
SF-295 = test: Cytotoxicity against human SF295 cells at 10 uM after 48 hrs by SRB assay; type: functional; settings: SF-295, 48 h, read-out: GI
HL-60(TB) = test: Cytotoxicity against human HL-60(TB) cells at 10 uM after 48 hrs by SRB assay; type: functional; settings: HL-60, 48 h, read-out: GI
SF-268 = test: Cytotoxicity against human SF268 cells at 10 uM after 48 hrs by SRB assay; type: functional; settings: SF-268, 48 h, read-out: GI
786-0 = test: Cytotoxicity against human 786-0 cells at 10 uM after 48 hrs by SRB assay; type: functional; settings: 786-0, 48 h, read-out: GI
SK-MEL-2 = test: Cytotoxicity against human SK-MEL-2 cells at 10 uM after 48 hrs by SRB assay; type: functional; settings: SK-MEL-2, 48 h, read-out: GI
PC-3 = test: Cytotoxicity against human PC3 cells at 10 uM after 48 hrs by SRB assay; type: functional; settings: PC-3, 48 h, read-out: GI
SNB-75 = test: Cytotoxicity against human SNB75 cells at 10 uM after 48 hrs by SRB assay; type: functional; settings: SNB-75, 48 h, read-out: GI
NCI-H460 = test: Cytotoxicity against human NCI-H460 cells at 10 uM after 48 hrs by SRB assay; type: functional; settings: NCI-H460, 48 h, read-out: GI
HCT-116 = test: Cytotoxicity against human HCT116 cells at 10 uM after 48 hrs by SRB assay; type: functional; settings: HCT-116, 48 h, read-out: GI
MDA-MB-231 = test: Cytotoxicity against human MDA-MB-231 cells at 10 uM after 48 hrs by SRB assay; type: functional; settings: MDA-MB-231, 48 h, read-out: GI
OVCAR-3 = test: Cytotoxicity against human OVCAR3 cells at 10 uM after 48 hrs by SRB assay; type: functional; settings: OVCAR-3, 48 h, read-out: GI
HCT-15 = test: Cytotoxicity against human HCT15 cells at 10 uM after 48 hrs by SRB assay; type: functional; settings: HCT-15, 48 h, read-out: GI
K562 = test: Cytotoxicity against human K562 cells at 10 uM after 48 hrs by SRB assay; type: functional; settings: K562, 48 h, read-out: GI
TK-10 = test: Cytotoxicity against human TK10 cells at 10 uM after 48 hrs by SRB assay; type: functional; settings: TK-10, 48 h, read-out: GI
SN12C = test: Cytotoxicity against human SN12C cells at 10 uM after 48 hrs by SRB assay; type: functional; settings: read-out: GI
NCI/ADR-RES = test: Cytotoxicity against human NCI/ADR-RES cells at 10 uM after 48 hrs by SRB assay; type: functional; settings: read-out: GI
DU-145 = test: Cytotoxicity against human DU145 cells at 10 uM after 48 hrs by SRB assay; type: functional; settings: DU-145, 48 h, read-out: GI
ACHN = test: Cytotoxicity against human ACHN cells at 10 uM after 48 hrs by SRB assay; type: functional; settings: read-out: GI
MCF7 = test: Cytotoxicity against human MCF7 cells at 10 uM after 48 hrs by SRB assay; type: functional; settings: MCF7, 48 h, read-out: GI
MDA-MB-468 = test: Cytotoxicity against human MDA-MB-468 cells at 10 uM after 48 hrs by SRB assay; type: functional; settings: MDA-MB-468, 48 h, read-out: GI
NCI-H226 = test: Cytotoxicity against human NCI-H226 cells at 10 uM after 48 hrs by SRB assay; type: functional; settings: NCI-H226, 48 h, read-out: GI
HOP-62 = test: Cytotoxicity against human HOP62 cells at 10 uM after 48 hrs by SRB assay; type: functional; settings: HOP-62, 48 h, read-out: GI
RXF 393 = test: Cytotoxicity against human RXF393 cells at 10 uM after 48 hrs by SRB assay; type: functional; settings: RXF 393, 48 h, read-out: GI
Hs-578T = test: Cytotoxicity against human Hs578T cells at 10 uM after 48 hrs by SRB assay; type: functional; settings: read-out: GI
OVCAR-5 = test: Cytotoxicity against human OVCAR5 cells at 10 uM after 48 hrs by SRB assay; type: functional; settings: OVCAR-5, 48 h, read-out: GI

C=CCn1c(C)nc2ccc(Nc3nc(Cl)nc4ccccc34)cc21
18%: inhibition of growth at 10 µM (PC-3)
< 10%: inhibition of growth at 10 µM (SK-OV-3) | inhibition of growth at 10 µM (U-251) | inhibition of growth at 10 µM (UACC-257) | inhibition of growth at 10 µM (SF-539) | inhibition of growth at 10 µM (BT-549) | inhibition of growth at 10 µM (OVCAR-8) | inhibition of growth at 10 µM (IGROV-1) | inhibition of growth at 10 µM [2] | inhibition of growth at 10 µM (UO-31) | inhibition of growth at 10 µM (SK-MEL-5) | inhibition of growth at 10 µM (HCC 2998) | inhibition of growth at 10 µM (MDA-MB-435) | inhibition of growth at 10 µM (SK-MEL-28) | inhibition of growth at 10 µM (SK-MEL-2) | inhibition of growth at 10 µM (SNB-75) | inhibition of growth at 10 µM (NCI-H460) | inhibition of growth at 10 µM (HCT-116) | inhibition of growth at 10 µM (OVCAR-3) | inhibition of growth at 10 µM (HCT-15) | inhibition of growth at 10 µM (TK-10) | inhibition of growth at 10 µM (SN12C) | inhibition of growth at 10 µM (NCI/ADR-RES) | inhibition of growth at 10 µM (DU-145) | inhibition of growth at 10 µM (ACHN) | inhibition of growth at 10 µM (MCF7) | inhibition of growth at 10 µM (NCI-H226) | inhibition of growth at 10 µM (HOP-62) | inhibition of growth at 10 µM (Hs-578T) | inhibition of growth at 10 µM (OVCAR-5)
15.2%: inhibition of growth at 10 µM (SF-295)
25.2%: inhibition of growth at 10 µM (K562)
16.3%: inhibition of growth at 10 µM (MDA-MB-468)
15.9%: inhibition of growth at 10 µM (HL-60(TB))
18.5%: inhibition of growth at 10 µM (T47D) | inhibition of growth at 10 µM (A549)
44.5%: inhibition of growth at 10 µM (A498)
2.1: logD [1]
10.1%: inhibition of growth at 10 µM (SF-268) | inhibition of growth at 10 µM (MDA-MB-231)
12.2%: inhibition of growth at 10 µM (786-0)
12.5%: inhibition of growth at 10 µM (RXF 393)
